Results on eight compounds are retold here after PubChem BioAssay (NCI).

What all share (experiment): NCI-60 cell line screen, 48 h
In test [1] the test system is NCI-H522 lung.
Test [2] has as its system CAKI-1 renal.
Test [3] has as its system SK-MEL-2 melanoma.
Test [4] relates to HCC-2998 colon.
In test [5] the test system is 786-0 renal.
The subject of test [6] is CCRF-CEM leukemia.
For test [7], the system named is UO-31 renal.
Test [8] relates to MALME-3M melanoma.
The subject of test [9] is DU-145 prostate.
Test [10] deals with HCT-15 colon.
The subject of test [11] is OVCAR-4 ovarian.
Test [12] relates to A549 NSCLC.
Test [13] has as its system SK-MEL-5 melanoma.
In test [14] the test system is RXF 393 renal.
Test [15] deals with HOP-92 NSCLC.
The test system of test [16] is HCT-116 colon.
Test [17] has as its system SK-OV-3 ovarian.
For test [18], the system named is MCF7 breast.
Test [19] concerns MDA-N.

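Results reflect a 48-hour exposure of cells in 96-well plates to compound at five concentrations. TGI is the concentration that stops growth completely.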

With `CC(ON1[C@](C)(c2ccccc2)CC[C@@]1(C)c1ccccc1)c1ccccc1` (stereo partly specified), the TGI in test [1] was 50.3 µM; in [2], over 100 µM; in test [3], 50.5 µM; in [4], 52.6 µM; in [5], over 100 µM; in [6], 52.5 µM. In addition, the TGI in [7], in test [8], in test [9], in [10], in [11] and in test [12] was over 100 µM throughout. Besides, the TGI was over 100 µM in test [13]; 46 µM in [14]; over 100 µM in test [15]; over 100 µM in test [16]; over 100 µM in test [17].

`Cc1nc(C)c(N2CCN(S(N)(=O)=O)CC2)c(=O)[nH]1`: the TGI in [18], in test [1], in test [2], in [4], in test [5] and in test [6] was over 100 µM throughout. For the same compound, the TGI in test [7], in [8], in test [9], in test [10], in [11] and in [12] was over 100 µM each time. The TGI in [13], in [14], in [15], in test [16] and in test [17] was over 100 µM each time.

In the case of `COC(=O)CCC(=O)c1ccc2c(c1)CC1(C2)Cc2ccc(C(=O)CCC(=O)OC)cc2C1`, the TGI in [18] was over 100 µM; in [19] it was over 100 µM; in [1], over 100 µM; in test [3], 61 µM; in [4], over 100 µM; in test [5], over 100 µM. For the same compound, the TGI in [6], in [7], in test [8], in [10], in test [11] and in test [12] was over 100 µM in each case. In addition, the TGI in test [13] was 61.5 µM; in test [14], over 100 µM; in test [15] it was over 100 µM; in [16], over 100 µM; in test [17], over 100 µM.

On to `[N-]=[N+]=Nc1c(-c2ccccc2)c(=O)n(-c2ccccc2)c2ccccc12`, for which the TGI in [18] is over 100 µM; in [19], over 100 µM; in test [1], 97.1 µM; in test [4], over 100 µM; in [5], over 100 µM; in [6] it was over 100 µM. The TGI in [7], in test [8], in [9], in test [10], in test [11] and in test [12] was over 100 µM throughout. Further, the TGI in test [14], in test [15], in test [16] and in test [17] was over 100 µM in each case.

Take `O=S1(=O)c2ccccc2N2C(c3ccccc3)=NOC2(c2ccccc2)CC1c1ccc(Br)cc1` (stereo unspecified): the TGI in test [18], in [19], in test [1], in test [3], in [4] and in [5] was over 100 µM in each case. Moreover, the TGI in test [6], in test [7], in test [8], in test [9], in test [10] and in test [11] was over 100 µM each time. Also, the TGI in test [12], in test [13], in test [14], in test [15], in test [16] and in [17] was over 100 µM throughout.

Take `Cc1cc(C#N)c(Nc2ccc(F)cc2[N+](=O)[O-])s1`: the TGI in test [19], in test [1], in test [2], in test [4], in test [5] and in [6] was over 100 µM each time. Also, the TGI in test [7], in test [8], in [9], in [10], in [11] and in test [12] was over 100 µM throughout. In addition, the TGI in [14] is over 100 µM; in test [15], 94.6 µM; in test [16] it was over 100 µM; in test [17], over 100 µM.

`Cc1nn(C(=O)Cc2ccccc2)c2c1C(c1ccc([N+](=O)[O-])cc1)SC(N)=N2` (stereo unspecified): the TGI in [18], in test [19], in test [1], in [2], in test [4] and in test [5] was over 100 µM throughout. The TGI in [6], in test [8], in test [9], in test [10], in [12] and in test [13] was over 100 µM throughout. Moreover, the TGI in test [16] and in test [17] was over 100 µM throughout.

As for `C1=CCC[C@@H]2CN3CCCC/C=C\CCCC[C@H]4C[C@H](CN(CCCCCCCC1)C4)[C@H]2CC3`, the TGI in test [18] is 16.4 µM; in test [19], 16.2 µM; in test [1] it was 17.7 µM; in test [2], 18.2 µM; in [3], 15.9 µM; in test [4], 14.4 µM. Besides, the TGI is 15.9 µM in test [5]; 34.9 µM in [6]; 17.5 µM in test [8]; over 50 µM in [9]; 18.3 µM in test [10]; 26.8 µM in [11]. Besides, the TGI is 17.8 µM in test [12], 16.3 µM in [13], 16.3 µM in test [16] and over 50 µM in test [17].
